{"source": "a melting point compilation (Tetko et al.; mined from patent text by program, amines drawn as free bases though some values may be those of a salt)"}
{"units": {"melting point": "°C"}}
{"smiles": "CN(C)c1ccc(C=CC(=O)c2ccc(OCCO)cc2)cc1", "melting point": "127 to 128"}
{"smiles": "CC#Cc1ncn2c1CN(C)C(=O)c1c(Cl)cccc1-2", "melting point": "243 to 244"}
{"smiles": "OC(c1cccc(C(F)(F)F)c1)C1CCN(CCc2ccccc2)CC1", "note": "(centres undefined)", "melting point": "143 to 147"}
{"smiles": "CCOC(=O)/C(=N\\OC12CC3CC(CC(C3)C1)C2)c1csc(N)n1", "melting point": "152 to 153"}
{"smiles": "CS(=O)(=O)c1ccc(-c2cc(=O)n(CC(=O)c3ccccc3)nc2-c2ccc(F)cc2)cc1", "melting point": "178 to 180"}
{"smiles": "CCC[C@H]1C(=O)N(S(=O)(=O)c2cccc3ccccc23)[C@H]2CCN(S(=O)(=O)CCCN3CCOCC3)[C@H]12", "note": "(relative stereo)", "melting point": "146 to 148"}
{"smiles": "COc1cccc2c(Nc3ccccc3C)nc(N3CCCC3)nc12", "melting point": "181 to 183"}
{"smiles": "O=C(O)C(Oc1ccc(OCc2ccccc2)cc1)c1ccc(OCCCOc2ccc(Cl)cc2)cc1", "note": "(centres undefined)", "melting point": "105 to 109"}
{"smiles": "CCCn1c(=O)cc(S(=O)(=O)CCC)n(Cc2ccc(-c3ccccc3-c3nnn[nH]3)cc2)c1=O", "melting point": "128 to 135"}
{"smiles": "CCc1nn(-c2ccc(Cl)nn2)c(CC)c1[N+](=O)[O-]", "melting point": "83 to 85"}
{"smiles": "Cc1cccc(NC(=S)SCC(=O)C(C)(C)C)n1", "melting point": 80}
{"smiles": "COC(=O)c1nc(-c2sccc2[N+](=O)[O-])n(C)c(=O)c1OC(=O)C(C)(C)C", "melting point": "159 to 161"}
{"smiles": "CCn1cc(C(=O)O)c(=O)c2ccc(-n3cccc3)nc21", "melting point": "230 to 232"}
{"smiles": "O=C(N[C@@H]1CCNC[C@H]1O)c1ccccc1", "note": "(relative stereo)", "melting point": 210}
{"smiles": "Cc1ccc2c(c1)S(=O)CC(COC(=O)Nc1ccccc1)(COC(=O)Nc1ccccc1)C2=O", "note": "(centres undefined)", "melting point": "65 to 73"}
{"smiles": "O=C(Nc1cccc(C(F)(F)F)c1)c1ccccc1SSc1ccccc1C(=O)Nc1cccc(C(F)(F)F)c1", "melting point": "167 to 168"}
{"smiles": "CCOC(=O)c1nn(-c2ccccc2)c2c1COc1ccccc1-2", "melting point": "154 to 156"}
{"smiles": "COc1cc(/C=C/c2cc(/C=C/c3c[nH]c4ccccc34)n[nH]2)ccc1OCc1ccccn1", "melting point": "120 to 130"}
{"smiles": "COc1ccc2c(c1)c(Cc1nc(-c3ccc(Cl)cc3)cs1)c(C)n2C(=O)c1ccc(Cl)cc1", "melting point": "186 to 188"}
{"smiles": "COC(=O)[C@@H]1CCN1S(=O)(=O)c1ccc(Cl)c(COc2cccc3c(-n4ccnc4)cc(C)nc23)c1Cl", "melting point": 80}
{"smiles": "COc1cccc(-c2ccc3c(c2)C(C)(C)C(=O)N3)c1", "melting point": "157 to 158"}
{"smiles": "O=C(NCc1ncccn1)c1cnc(N2CCC[C@H]2CO)nc1NCc1cccc(Cl)c1", "melting point": "153 to 156"}
{"smiles": "CC(=O)NCC1CN(c2ccc(N3CCN(c4nnc(C)o4)CC3)c(F)c2)C(=O)O1", "note": "(centres undefined)", "melting point": "212 to 214"}
{"smiles": "CCOC(=O)Cn1c(=O)c(=O)[nH]c2cc(C(F)(F)F)c(-n3ccc(C=O)c3)cc21", "melting point": "236 to 237"}
{"smiles": "CC(C)n1c(=O)n(C(=O)NCC2CCN(CC3(C(=O)O)CCCC3)CC2)c2ccccc21", "melting point": 165}
{"smiles": "C#CCCC(=O)Oc1cc(-n2c(OC)nc(C(F)(F)C(F)(F)F)c(F)c2=O)c(F)cc1Cl", "melting point": "107 to 109"}
{"smiles": "O=C1COc2cc(OCc3c(F)cccc3F)ccc21", "melting point": "134 to 138"}
{"smiles": "CCOC(=O)c1ccc(-c2ccc(OC)c(Br)c2)cc1", "melting point": "114 to 115"}
{"smiles": "CCOC(=O)c1sc(OCC)nc1-c1ccccc1", "melting point": "32 to 34"}
{"smiles": "CCCCCCCCOC(=O)COc1cc(F)ccc1C(=O)NCc1cccc([N+](=O)[O-])c1", "melting point": "72 to 74"}
{"smiles": "O=P(CN(O)Cc1ccccc1)(OCc1ccccc1)OCc1ccccc1", "melting point": "62 to 64"}
{"smiles": "CN(C)CCc1[nH]c2ccccc2c1CSc1nccn1C", "melting point": "152 to 154"}
{"smiles": "CCCNC(=O)c1nc(-c2ccccc2)c(-c2ccc(=O)n(CCC)n2)s1", "melting point": "121 to 122"}
{"smiles": "C[C@H](NC(=O)[C@H](Cc1ccccc1)NC(=O)CS)C(=O)O", "melting point": "172 to 174"}
{"smiles": "O=C(Nc1cc(C(F)(F)F)cc(C(F)(F)F)c1)c1cc(Cl)cnc1O", "melting point": "> 270"}
{"smiles": "Cc1[nH]c2ccc([N+](=O)[O-])cc2c1Cn1ccnc1", "melting point": "240 to 242"}
{"smiles": "CCC(=O)c1cc2n(c(=O)c1C)Cc1cc3ccccc3nc1-2", "melting point": "233 to 234"}
{"smiles": "COc1cccc2ocnc12", "melting point": "72 to 74"}
{"smiles": "C/C(=C\\c1ccc(C(=O)O)cc1)c1cc2c(s1)C(C)(C)CCC2(C)C", "melting point": "236 to 238"}
{"smiles": "O=C(NCCc1cccc(-c2nc(=O)c3ccccc3s2)n1)Nc1ccccc1", "melting point": "235 to 236"}
{"smiles": "COc1ccc2c(c1)CC(=O)c1sccc1C2=C1CCN(C)CC1", "melting point": "157 to 158"}
{"smiles": "CC1Cc2cc3c(cc2C(c2ccc([N+](=O)[O-])cc2)=NN1C1=NCCS1)OCO3", "note": "(centres undefined)", "melting point": "185 to 187"}
{"smiles": "COc1ccc(-c2ccc(-c3ccc(OC)cc3)c(-c3ccc(O)cc3)n2)cc1", "melting point": "204 to 205"}
{"smiles": "O=C(O)/C=C/C(=O)/C=C/c1ccc2c(c1)OCO2", "melting point": "170 to 173"}
{"smiles": "FC(F)(F)c1ccn(-c2cccnc2)n1", "melting point": "59 to 61"}
{"smiles": "C=CCON=C(C(=O)O)c1nc(NC=O)sc1Cl", "melting point": "166 to 167"}
{"smiles": "Cc1cc(C)nc(NC(=O)Cc2ccsc2Br)c1", "melting point": 72}
{"smiles": "N#CCCNC(=O)Sc1ccccc1", "melting point": "86 to 90"}
{"smiles": "CNCCOc1ccc(C(=C(CCO)c2ccccc2)c2ccccc2)cc1", "melting point": "134 to 139"}
{"smiles": "CC(C)(C)c1ccc2sc3cc(-c4nnn[nH]4)ccc3c(=O)c2c1", "melting point": 277}
{"smiles": "C[C@@H](n1cnc2cc(C(F)(F)F)ccc2c1=O)[C@](O)(Cn1cncn1)c1ccc(F)cc1F", "melting point": "142 to 143"}
{"smiles": "CS(=O)(=O)OCCNc1cc(Cl)ccc1[N+](=O)[O-]", "melting point": "101 to 102"}
{"smiles": "COC(=O)CS(=O)(=O)N1CC=C(c2ccc(-c3ccccc3)cc2)CC1", "melting point": "182 to 183"}
{"smiles": "Cc1ncnc(-c2ccc(Cl)cc2F)c1Cl", "melting point": "77 to 79"}
{"smiles": "O=C1COc2ccccc2CN1Cc1ccccc1", "melting point": "95 to 97"}
{"smiles": "Cn1nc(-c2cc(O)c(C#N)cc2F)c(Cl)c1C(F)(F)F", "melting point": 151}
{"smiles": "Cc1cc(C(C)(C)C)cc(C=NO)c1O", "melting point": "107 to 108"}
{"smiles": "CC(C)(C)OC(=O)N1CCN(c2[nH]nc(-c3ccc(Cl)cc3)c2-c2ccncc2)CC1", "melting point": "204 to 205"}
{"smiles": "COc1cc(CO)cc(OC)c1Br", "melting point": "100 to 102"}
{"smiles": "O=[N+]([O-])c1ccc(NCCSCc2c[nH]cn2)nc1", "melting point": "145 to 147"}
{"smiles": "CCOC(=O)c1cn(-c2cc(N)c(F)cc2F)c2c(OC)c(F)c(F)cc2c1=O", "melting point": "159 to 162"}
{"smiles": "c1ccc2c(c1)CCc1c(N3CCN(Cc4c[nH]c5ncccc45)CC3)n[nH]c1-2", "melting point": "245 to 247"}
{"smiles": "O=C(O)c1ccc(CN2Cc3ccccc3Cc3ccccc32)cc1", "melting point": 198}
{"smiles": "S=C(Nc1cccc2c1[nH]c1ccccc12)SCc1ccccc1", "melting point": "66 to 68"}
{"smiles": "COc1cc2c(cc1C(F)(F)F)N(C(=O)Nc1cncc(Br)c1)CC2", "melting point": "220 to 222"}
{"smiles": "CSc1ccc(F)cc1C(=O)Cn1cccc1", "melting point": "133 to 134"}
{"smiles": "CCOC(=O)C(C)(NC(=O)Cc1ccc(O)c2ncccc12)C(=O)OCC", "melting point": "153 to 154"}
{"smiles": "O=C(O)c1ncn2c(C(F)F)cc(-c3ccc(C(F)(F)F)cc3)nc12", "melting point": 238}
{"smiles": "CCCNc1cn(-c2cccnc2)nc1Cl", "melting point": "92 to 94"}
{"smiles": "CC(C)(C)OC(=O)NC1(CCN2C(=O)c3ccccc3C2=O)CC1", "melting point": "125 to 127"}
{"smiles": "NS(=O)(=O)c1cccc(-c2noc(-c3cnc4c(C(F)(F)F)cc(-c5ccc(C(F)(F)F)cc5)cn34)n2)c1", "melting point": 297}
{"smiles": "ON=Cc1ccc(OCc2coc(-c3ccc(C(F)(F)F)cc3)n2)cc1", "melting point": "155 to 160"}
{"smiles": "CS(=O)(=O)N(c1ccc(Cl)c(C(=O)Nc2cccc3c4c(oc23)CCCC4)c1Cl)S(C)(=O)=O", "melting point": "237 to 238"}
{"smiles": "CCOC(=O)C(=CNc1ccc(F)cc1F)C(=O)c1c(F)c(F)c(F)c(F)c1F", "melting point": "97 to 99"}
{"smiles": "CC1(C)CCC(C)(C)c2cc(Br)c(O)cc21", "melting point": "90 to 94"}
{"smiles": "O=C(CCCCC(=O)Oc1ccc(C(=O)OCc2ccccc2)cc1)Oc1ccc(C(=O)OCc2ccccc2)cc1", "melting point": "93 to 93.5"}
{"smiles": "O=C(Nc1ccc(Cl)c(C(F)(F)F)c1)C1C(=O)C2CCC(C2)C1=O", "note": "(centres undefined)", "melting point": "136 to 137"}
{"smiles": "CC(=O)Nc1nc2c(Nc3ncnc4cc(Cl)ccc34)cccc2s1", "melting point": 230}
{"smiles": "CS(=O)(=O)c1cccc(Nc2cc(-c3ccc(C(F)(F)F)cc3)ncn2)c1", "melting point": "204 to 205"}
{"smiles": "Cn1cncc1C(O)(c1ccc(Cl)cc1)c1ccc2c(c1)C(c1cccc(Cl)c1)n1nnnc1N2", "note": "(centres undefined)", "melting point": "> 260"}
{"smiles": "NCc1ccsc1CC(=O)O", "melting point": "194 to 195"}
{"smiles": "O=C(O)c1ccc2oc(-c3ccc(C(F)(F)F)nc3)cc2c1", "melting point": "> 260"}
{"smiles": "NN=c1cc(-c2c[nH]nc2-c2cccc(Cl)c2)cc[nH]1", "melting point": "163 to 164"}
{"smiles": "CNC(=O)C(=O)c1ccccc1COc1cc(C)ccc1C", "melting point": "129 to 130"}
{"smiles": "CC(=O)c1ccc2c(c1)S(=O)(=O)c1ccccc1O2", "melting point": "163 to 165"}
{"smiles": "CCC(C)C(=O)c1cn(C)cc(-c2cccc(C(F)(F)F)c2)c1=O", "note": "(centres undefined)", "melting point": "109 to 111"}
{"smiles": "O=C(Nc1ccc(-n2nc(C(F)(F)F)cc2C(F)(F)F)cc1)C1CCCCC1", "melting point": "178 to 180"}
{"smiles": "Cc1ccc2c(c1)C1=NN(c3ccc(OCCCN4CCCCC4)cc3)C(=O)CC1CC2", "note": "(centres undefined)", "melting point": "171 to 172"}
{"smiles": "COCCOC(=O)C1=C(C)NC(C)=C(C(=O)OC(C)C)C1c1ccccc1F", "note": "(centres undefined)", "melting point": "99 to 100"}
{"smiles": "Cc1nc2c(N)nc3ccc(OCc4ccccc4)cc3c2n1CCCCNC(=O)N1CCOCC1", "melting point": "178 to 180"}
{"smiles": "Cc1nc2cccc(NC(=O)CCl)c2c(=O)n1C1CCC(=O)NC1=O", "note": "(centres undefined)", "melting point": "275 to 277"}
{"smiles": "CCC(=O)N1CCC(=NO)c2cc(F)ccc21", "melting point": "126 to 128"}
{"smiles": "COc1cc(C(=O)CCCC2CCCCC2)c(OC)cc1Cl", "melting point": "80 to 81"}
{"smiles": "COc1cccc2c1CC(N=[N+]=[N-])C(O)C2", "note": "(centres undefined)", "melting point": "83 to 84"}
{"smiles": "CS(=O)(=O)c1cc2[nH]c(=O)c(=O)n(C3CCCCC3)c2cc1[N+](=O)[O-]", "melting point": "> 280"}
{"smiles": "CN(C)CCc1[nH]c2ccccc2c1CC(C#N)(c1ccccc1)c1ccccc1", "melting point": "181 to 185"}
{"smiles": "CCC(C)NCC(O)COc1ccc2c(=O)c(-c3ccccc3)c(-c3ccccc3)oc2c1", "note": "(centres undefined)", "melting point": "139 to 140"}
{"smiles": "C=CC(=O)N(CC)c1cn(-c2cccnc2)nc1Cl", "melting point": "67 to 68"}
{"smiles": "COc1ccc(Cl)cc1C1(F)C(=O)Nc2c(C(F)(F)F)cccc21", "note": "(centres undefined)", "melting point": "230 to 233"}
